Results taken from US7018981B2, “Cyclic motilin receptor antagonists” (Chugai Seiyaku Kabushiki Kaisha, priority 2000, dated 2006).
Where a SMILES comes first, the peptide text is derived from it. Bridges are numbered along the chain shown (N, C = ends). [ ]: non-standard residue; d: D form. NMeTyr(3-tBu) = CN[C@@H](Cc1ccc(O)c(C(C)(C)C)c1)C(=O)O; Tyr(3-tBu) = CC(C)(C)c1cc(C[C@H](N)C(=O)O)ccc1O; Phe(4-F) = N[C@@H](Cc1ccc(F)cc1)C(=O)O; NMeLys(Me) = CNCCCC[C@H](NC)C(=O)O; NMeK = CN[C@@H](CCCCN)C(=O)O; GABA = NCCCC(=O)O; βAla = NCCC(=O)O

What was measured:
[1] = tested on: motilin-induced contraction of a sample of the longitudinal muscle of the duodenum; assay: Contraction inhibition test: motilin-induced contraction of rabbit longitudinal duodenal muscle; type: cell-based; settings: Oryctolagus cuniculus; concentration-dependent contraction induced by motilin; rabbit duodenal specimen in Krebs solution at 28° C.; read-out: Contraction inhibition test pA2 (converted)
Protocol: The effect of compounds of the present invention on motilin-induced contraction of a sample of the longitudinal muscle of the duodenum extracted from a rabbit was tested as follows.
A duodenal specimen (5×15 mm) extracted from a killed rabbit was suspended in the direction of the longitudinal muscle in an incubator at 28° C. filled with Krebs solution (10 ml organ bath). A mixed gas (95% O2, 5% CO2) was continuously passed through the Krebs solution and the contraction of the duodenal specimen was isotonically recorded (under a load of 1 g) via an isotonic transducer (ME-3407, ME Commercial, Tokyo, Japan). The extent of contraction of the duodenal specimen was expressed as a percentage to the contraction induced by acetylcholine at a concentration of 10^−4 M.
The effect of the compounds synthesized in Examples 1–8 and 10 on the concentration-dependent contraction induced by motilin added into the incubator was determined to calculate pA2 (see “Drug receptors” edited by Takayanagi, published by Nanzando). As a comparative example, the results of the compound of formula (5) are also shown.

motilin receptors = molecular target: T1, motilin receptors (Oryctolagus cuniculus, UniProt G1T803); assay: Motilin receptor binding test (125I motilin, rabbit duodenum protein solution); settings: concentration inhibiting 50% of specific binding of 25 pM 125I motilin; rabbit duodenum homogenate, 2 hours at 25° C.
T1 construct: A protein solution was prepared by homogenizing the duodenum isolated from a killed rabbit; from tissue; host or cells: rabbit duodenum, mucosa stripped, homogenate
T1 sequence (G1T803 1-400): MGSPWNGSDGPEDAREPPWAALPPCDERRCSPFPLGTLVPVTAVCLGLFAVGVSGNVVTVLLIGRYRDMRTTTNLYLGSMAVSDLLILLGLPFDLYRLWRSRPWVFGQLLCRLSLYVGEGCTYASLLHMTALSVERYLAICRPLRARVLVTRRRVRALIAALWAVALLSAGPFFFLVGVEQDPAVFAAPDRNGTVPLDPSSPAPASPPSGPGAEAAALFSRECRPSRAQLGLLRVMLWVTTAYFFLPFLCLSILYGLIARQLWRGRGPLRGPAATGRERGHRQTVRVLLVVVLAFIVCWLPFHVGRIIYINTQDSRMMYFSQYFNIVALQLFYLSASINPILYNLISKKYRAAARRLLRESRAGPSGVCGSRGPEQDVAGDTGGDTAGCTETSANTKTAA
Protocol: Motilin receptor binding activities of compounds of the present invention were tested as follows [Vantrappen et al., Regul.
A protein solution was prepared by homogenizing the duodenum isolated from a killed rabbit in 50 mM Tris after stripping the mucosa. […] The difference between the radioactivity of the protein solution incubated alone and the radioactivity of the protein solution incubated with a large excess of motilin (10^−7 M) was recorded as specific binding of motilin to motilin receptors.

| Compound | IC50 (motilin receptors) [nM] | Kb [1] [nM] |
| --- | --- | --- |
| CN(C(=O)[C@@H](N)Cc1ccc(F)cc1)[C@H]1CCCCNC(=O)CCNC(=O)[C@H](Cc2ccc(O)c(C(C)(C)C)c2)N(C)C1=O [Example 2, (2S-(2S.13S))-2-amino-N-(2-(3-tert-butyl-4-hydroxyphenylmethyl)-1-methyl-1,4,8-triaza-3,7,14-trioxocyclotetradec-13-yl)-3-(4-fluorophenyl)-N-methylpropionamide] (H-[Phe(4-F)][NMeK][NMeTyr(3-tBu)][βAla]; lactam 2-C) | 1.4 | 1.26 |
| CN(C(=O)[C@@H](N)Cc1ccc(F)cc1)[C@H]1CCCCNC(=O)CCCNC(=O)[C@H](Cc2ccc(O)c(C(C)(C)C)c2)NC1=O [Example 6, (2S-(2S,14S))-2-amino-N-(2-(3-tert-butyl-4-hydroxyphenylmethyl)-1,4,9-triaza-3,8,15-trioxocyclopentadec-14-yl)-3-(4-fluorophenyl)-N-methylpropionamide] (H-[Phe(4-F)][NMeK][Tyr(3-tBu)][GABA]; lactam 2-C) | 0.87 | 3.16 |
| CC(C)(C)c1cc(C[C@@H]2NC(=O)[C@@H](NC(=O)[C@@H](N)Cc3ccc(F)cc3)CCCCNC(=O)CCNC2=O)ccc1O [Example 7, (2S,14S)-13-(2S-2-amino-3-(4-fluorophenyl)propylamino)-2-(3-tert-butyl-4-hydroxyphenylmethyl)-1,4,8-triaza-3,7,14-trioxocyclotetradecane] (H-[Phe(4-F)]K[Tyr(3-tBu)][βAla]; lactam 2-C) | 4.5 | 10 |
| CC(=O)N1CCCC[C@H](N(C)C(=O)[C@@H](N)Cc2ccc(F)cc2)C(=O)N[C@@H](Cc2ccc(O)c(C(C)(C)C)c2)C(=O)NCCC1 [Example 8, (2S-(2S.13S))-N-(8-acetyl-2-(3-tert-butyl-4-hydroxyphenylmethyl)-N-methyl-1,4,8-triaza-3,14-dioxocyclotetradec-13-yl)-2-amino-3-(4-fluorophenyl)propionamide] | 0.84 | 6.31 |

Second part, led by results:

| IC50 (motilin receptors) [nM] | Compound | Kb [1] [nM] |
| --- | --- | --- |
| 1.2 | CN(C(=O)[C@@H](N)Cc1ccc(F)cc1)[C@H]1CCCCNC(=O)CCNC(=O)[C@H](Cc2ccc(O)c(C(C)(C)C)c2)NC1=O [Example 1, (2S-(2S,13S))-2-amino-N-(2-(3-tert-butyl-4-hydroxyphenylmethyl)-1,4,8-triaza-3,7,14-trioxocyclotetradec-13-yl)-3-(4-fluorophenyl)-N-methylpropionamide] (H-[Phe(4-F)][NMeK][Tyr(3-tBu)][βAla]; lactam 2-C) | 1 |
| 0.52 | CN(C(=O)[C@@H](N)Cc1ccc(F)cc1)[C@H]1CCCCNC(=O)CNC(=O)[C@H](Cc2ccc(O)c(C(C)(C)C)c2)NC1=O [Example 3, (2S-(2S,12S))-2-amino-N-(2-(3-tert-butyl-4-hydroxyphenylmethyl)-1,4,8-triaza-3,7,13-trioxocyclotridec-12-yl)-3-(4-fluorophenyl)-N-methylpropionamide] (H-[Phe(4-F)][NMeK][Tyr(3-tBu)]G; lactam 2-C) | 6.31 |
| 0.78 | CN1CCC(=O)NCCCC[C@H](N(C)C(=O)[C@@H](N)Cc2ccc(F)cc2)C(=O)N[C@@H](Cc2ccc(O)c(C(C)(C)C)c2)C1=O [Example 4, (2S-(2S,13S))-2-amino-N-(2-(3-tert-butyl-4-hydroxyphenylmethyl)-4-methyl-1,4,8-triaza-3,7,14-trioxocyclotetradec-13-yl)-3-(4-fluorophenyl)-N-methylpropionamide] | 1 |
| 1.4 | CN1CCCC[C@H](N(C)C(=O)[C@@H](N)Cc2ccc(F)cc2)C(=O)N[C@@H](Cc2ccc(O)c(C(C)(C)C)c2)C(=O)NCCC1=O [Example 5, (2S-(2S,13S))-2-amino-N-(2-(3-tert-butyl-4-hydroxyphenylmethyl)-8-methyl-1,4,8-triaza-3,7,14-trioxocyclotetradec-13-yl)-3-(4-fluorophenyl)-N-methylpropionamide] (H-[Phe(4-F)][NMeLys(Me)][Tyr(3-tBu)][βAla]; lactam 2-C) | 0.126 |
| 2.2 | CN(C(=O)[C@@H](N)Cc1ccccc1)[C@H]1CCCCNC(=O)CCNC(=O)[C@H](Cc2ccc(O)c(C(C)(C)C)c2)NC1=O [Example 10, (2S-(2S,13S))-2-amino-N-(2-(3-tert-butyl-4-hydroxyphenylmethyl)-1,4,8-triaza-3,7,14-trioxocyclotetradec-13-yl)-3-phenyl-N-methylpropionamide] (H-F[NMeK][Tyr(3-tBu)][βAla]; lactam 2-C) | 12.6 |
